Measurements reported in PubChem BioAssay (NCI).
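48-hour exposure; five concentrations; linearly interpolated endpoints. TGI is the concentration that stops growth completely.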

Assays:
Test in all cases: growth of human tumour cells (NCI), 48 h
786-0 renal = system: 786-0 renal
A498 renal = system: A498 renal
A549 NSCLC = system: A549 NSCLC
ACHN renal = system: ACHN renal
BT-549 breast = system: BT-549 breast
CAKI-1 renal = system: CAKI-1 renal
COLO 205 colon = system: COLO 205 colon
DU-145 prostate = system: DU-145 prostate
EKVX NSCLC = system: EKVX NSCLC
HCC-2998 colon = system: HCC-2998 colon
HCT-116 colon = system: HCT-116 colon
HCT-15 colon = system: HCT-15 colon
HOP-62 NSCLC = system: HOP-62 NSCLC
HS 578T breast = system: HS 578T breast
K-562 leukemia = system: K-562 leukemia
KM12 colon = system: KM12 colon
LOX IMVI melanoma = system: LOX IMVI melanoma
M14 melanoma = system: M14 melanoma
MCF7 breast = system: MCF7 breast
MDA-MB-231 breast = system: MDA-MB-231 breast
MDA-MB-435 = system: MDA-MB-435
MDA-N = system: MDA-N
MOLT-4 leukemia = system: MOLT-4 leukemia
NCI-H226 lung = system: NCI-H226 lung
NCI-H23 lung = system: NCI-H23 lung
NCI-H460 lung = system: NCI-H460 lung
NCI/ADR-RES ovarian = system: NCI/ADR-RES ovarian
OVCAR-3 ovarian = system: OVCAR-3 ovarian
OVCAR-4 ovarian = system: OVCAR-4 ovarian
OVCAR-5 ovarian = system: OVCAR-5 ovarian
OVCAR-8 ovarian = system: OVCAR-8 ovarian
PC-3 prostate = system: PC-3 prostate
RPMI-8226 leukemia = system: RPMI-8226 leukemia
RXF 393 renal = system: RXF 393 renal
SF-268 CNS = system: SF-268 CNS
SF-295 CNS = system: SF-295 CNS
SK-MEL-2 melanoma = system: SK-MEL-2 melanoma
SK-MEL-28 melanoma = system: SK-MEL-28 melanoma
SK-OV-3 ovarian = system: SK-OV-3 ovarian
SN12C renal = system: SN12C renal
SNB-19 CNS = system: SNB-19 CNS
SNB-75 CNS = system: SNB-75 CNS
SR leukemia = system: SR leukemia
SW-620 colon = system: SW-620 colon
T-47D breast = system: T-47D breast
TK-10 renal = system: TK-10 renal
U251 CNS = system: U251 CNS
UACC-257 melanoma = system: UACC-257 melanoma
UACC-62 melanoma = system: UACC-62 melanoma
UO-31 renal = system: UO-31 renal

COc1cc2ccnc3c2c(c1OC)N(C)C=C3
TGI (786-0 renal): 53.6 µM | TGI (A498 renal): > 100 µM | TGI (A549 NSCLC): 41 µM | TGI (ACHN renal): 46.4 µM | TGI (BT-549 breast): 87.8 µM | TGI (CAKI-1 renal): 44.8 µM | TGI (COLO 205 colon): 96.3 µM | TGI (DU-145 prostate): > 100 µM | TGI (EKVX NSCLC): 61.6 µM | TGI (HCC-2998 colon): 33.8 µM | TGI (HCT-116 colon): 37.9 µM | TGI (HCT-15 colon): > 100 µM | TGI (HOP-62 NSCLC): > 100 µM | TGI (HS 578T breast): > 100 µM | TGI (K-562 leukemia): 65.5 µM | TGI (KM12 colon): > 100 µM | TGI (LOX IMVI melanoma): 50.4 µM | TGI (M14 melanoma): 68.8 µM | TGI (MCF7 breast): 44.6 µM | TGI (MDA-MB-231 breast): 80.6 µM | TGI (MDA-MB-435): 80.4 µM | TGI (MDA-N): 36.1 µM | TGI (MOLT-4 leukemia): > 100 µM | TGI (NCI-H226 lung): 54.1 µM | TGI (NCI-H23 lung): 47 µM | TGI (NCI-H460 lung): 29 µM | TGI (NCI/ADR-RES ovarian): 76.4 µM | TGI (OVCAR-3 ovarian): > 100 µM | TGI (OVCAR-4 ovarian): 71.2 µM | TGI (OVCAR-5 ovarian): > 100 µM | TGI (OVCAR-8 ovarian): > 100 µM | TGI (PC-3 prostate): > 100 µM | TGI (RPMI-8226 leukemia): 82.2 µM | TGI (RXF 393 renal): 68.6 µM | TGI (SF-268 CNS): > 100 µM | TGI (SF-295 CNS): 78.3 µM | TGI (SK-MEL-2 melanoma): 57.6 µM | TGI (SK-MEL-28 melanoma): > 100 µM | TGI (SK-OV-3 ovarian): 79.3 µM | TGI (SN12C renal): > 100 µM | TGI (SNB-19 CNS): 75.9 µM | TGI (SNB-75 CNS): > 100 µM | TGI (SR leukemia): 64.9 µM | TGI (SW-620 colon): > 100 µM | TGI (T-47D breast): > 100 µM | TGI (TK-10 renal): > 100 µM | TGI (U251 CNS): > 100 µM | TGI (UACC-257 melanoma): > 100 µM | TGI (UACC-62 melanoma): 80.3 µM | TGI (UO-31 renal): 33.1 µM
